Laboratory results as given in PubChem BioAssay AID1259407 (Chemical Carcinogenesis Research Information System (CCRIS), 2018).
The source made the active and inactive calls. No rule for the calls is given here.

System: CCRIS mutagenicity, Ames/micronucleus/aberration tests
Test: CCRIS mutagenicity studies
[1] = Test System: AMES SALMONELLA TYPHIMURIUM, Strain/Indicator: TA98, Metabolic Activation: NONE, Method: PREINCUBATION
[2] = Test System: AMES SALMONELLA TYPHIMURIUM, Strain/Indicator: TA100, Metabolic Activation: NONE, Method: PREINCUBATION

Row | Structure (SMILES) | mutagenic call (Test System: AMES SALMONELLA TYPHIMURIUM, Strain/Indicator: TA98, Metabolic Activation: NONE, Method: STANDARD PLATE) | mutagenic call (Test System: AMES SALMONELLA TYPHIMURIUM, Strain/Indicator: TA98, Metabolic Activation: RAT LIVER S-9, AROCLOR 1254, Method: STANDARD PLATE) | mutagenic call (Test System: AMES SALMONELLA TYPHIMURIUM, Strain/Indicator: TA100, Metabolic Activation: NONE, Method: STANDARD PLATE) | mutagenic call (Test System: AMES SALMONELLA TYPHIMURIUM, Strain/Indicator: TA100, Metabolic Activation: RAT LIVER S-9, AROCLOR 1254, Method: STANDARD PLATE) | mutagenic call (Test System: AMES SALMONELLA TYPHIMURIUM, Strain/Indicator: TA98, Metabolic Activation: HAMSTER, LIVER, S-9, AROCLOR 1254 (10%), Method: PREINCUBATION) | mutagenic call [1] | mutagenic call (Test System: AMES SALMONELLA TYPHIMURIUM, Strain/Indicator: TA98, Metabolic Activation: RAT, LIVER, S-9, AROCLOR 1254 (10%), Method: PREINCUBATION) | mutagenic call (Test System: AMES SALMONELLA TYPHIMURIUM, Strain/Indicator: TA100, Metabolic Activation: HAMSTER, LIVER, S-9, AROCLOR 1254 (10%), Method: PREINCUBATION) | mutagenic call [2] | mutagenic call (Test System: AMES SALMONELLA TYPHIMURIUM, Strain/Indicator: TA100, Metabolic Activation: RAT, LIVER, S-9, AROCLOR 1254 (10%), Method: PREINCUBATION) | mutagenic call (Test System: AMES SALMONELLA TYPHIMURIUM, Strain/Indicator: TA1535, Metabolic Activation: HAMSTER, LIVER, S-9, AROCLOR 1254 (10%), Method: PREINCUBATION) | mutagenic call (Test System: AMES SALMONELLA TYPHIMURIUM, Strain/Indicator: TA1535, Metabolic Activation: NONE, Method: PREINCUBATION) | mutagenic call (Test System: AMES SALMONELLA TYPHIMURIUM, Strain/Indicator: TA1535, Metabolic Activation: RAT, LIVER, S-9, AROCLOR 1254 (10%), Method: PREINCUBATION) | mutagenic call (Test System: AMES SALMONELLA TYPHIMURIUM, Strain/Indicator: TA1537, Metabolic Activation: HAMSTER, LIVER, S-9, AROCLOR 1254 (10%), Method: PREINCUBATION) | mutagenic call (Test System: AMES SALMONELLA TYPHIMURIUM, Strain/Indicator: TA1537, Metabolic Activation: NONE, Method: PREINCUBATION) | mutagenic call (Test System: AMES SALMONELLA TYPHIMURIUM, Strain/Indicator: TA1537, Metabolic Activation: RAT, LIVER, S-9, AROCLOR 1254 (10%), Method: PREINCUBATION) | mutagenic call (Test System: AMES SALMONELLA TYPHIMURIUM, Strain/Indicator: TA97, Metabolic Activation: NONE, Method: PREINCUBATION) | mutagenic call (Test System: AMES SALMONELLA TYPHIMURIUM, Strain/Indicator: TA104, Metabolic Activation: NONE, Method: PREINCUBATION) | mutagenic call (Test System: CHINESE HAMSTER V-79, Strain/Indicator: V-79/6-THIOGUANINE, Metabolic Activation: NONE)
1 | Cc1cc(N)c(C)c2c1[nH]c1ccccc12 | inactive; negative | active; positive | inactive; negative | inactive; negative | – | – | – | – | – | – | – | – | – | – | – | – | – | – | –
2 | C=C(C)C1CC=C(C)C(O)C1 (stereo unspecified) | – | – | – | – | inactive; negative | inactive; negative | inactive; negative | inactive; negative | inactive; negative | inactive; negative | inactive; negative | inactive; negative | inactive; negative | inactive; negative | inactive; negative | inactive; negative | – | – | –
3 | Oc1c2c(c3c(ccc4c3ccc3ccc5ccccc5c34)c1O)O2 | – | – | – | – | – | active; positive | – | – | active; positive | – | – | – | – | – | – | – | active; positive | active; positive | active; positive
